Reference: PMC5108082, “Pharmacokinetics, toxicity, and cytochrome P450 modulatory activity of plumbagin” (BMC Pharmacology & Toxicology, 2016)

Columns and labels:
[1] = acute toxicity test, single oral dose; format: in vivo, rat; settings: both sexes, Wistar, rat, in vivo, rats, single oral dose
Protocol: (§1) Plumbagin was dissolved with 20 % Tween-80 to obtain the desired concentrations. Wistar rats were fasting 2 h before administration of a single oral dose of the plumbagin. Animals were divided into eight groups of six (3 males and 3 females for each group). For the acute toxicity test, rats in each group were fed with plumbagin at a single oral dose of 500, 250, or 150 mg/kg body weight (1 mL); control group received a single oral dose of 20 % Tween-80 (1 mL). For the subacute toxicity test, rats in each group were fed with plumbagin at a daily dose of 100, 50, or 25 mg/kg body weight (1 mL) for 28 days; control group received a daily oral dose of 20 % Tween-80 for 28 days (1 mL).
(§2) General behavioral changes of each rat was observed continuously for 1 h after each dose, intermittently every 4 h, and thereafter over a period of 24 h. […] At the end of the observation period, all animals were sacrificed under ether anesthesia (isoflurane) and vital organs (liver, lung, kidney, heart, and spleen) were removed from all animals for gross and histopathological examination. Blood sample was collected from each rat through cardiac puncture for analysis of plasma chemistry (heparin as an anticoagulant) and blood hematology (EDTA as an anticoagulant).

[2] = test system: Wistar rats; assay: acute toxicity test, single oral dose; format: in vivo, rat
Protocol: as §1, §2

[3] = test system: CYP1A2 mRNA; assay: CYP1A2 mRNA expression in livers of treated mice (RT-PCR); format: in vivo, mouse; settings: mice, 25, 12.5, 6.25 mg/kg daily oral for 28 days vs control
Protocol: Mice were divided into four groups (3 male mice each). Mice in the treated groups were fed with plumbagin at a daily oral dose of 25, 12.5, or 6.25 mg/kg body weight (1 mL) for 28 days. The control group received a daily oral dose (1 mL) of 20 % Tween-80 for 28 days. At the end of the experiment period, all animals were sacrificed under ether anesthesia and livers were removed for investigation of the modulatory effect of plumbagin on hepatic CYP1A2 and CYP3A11.
The liver sample isolated from each mouse was rinsed with ice-cold, 0.9 % NaCl and total RNA was prepared using Trizol^TM reagent according to the manufacturer’s protocol (Invitrogen, Karlsruhe, Germany). Briefly, the sample was homogenized in TRIZOL reagent (1 mL) per 50–100 mg of tissue. The homogenized sample was incubated at 25 °C for 5 min and chloroform (0.2 mL/1 mL of TRIZOL reagent) was added. The sample was thoroughly mixed and incubated at 25 °C for 3 min. Following centrifugation (12,000 × g for 15 min, 2–8 °C), the sample was separated into a lower red phenol-chloroform phase, an interphase, and a colorless upper aqueous phase. […] The RNA pellets were dried and dissolved in 20 μL DEPC-treated water and the concentrations were determined using NanoDrop Spectrophotometry (NanoDrop Technologies, Wilmington, DE, USA). […]

[4] = test system: human colon epithelial cell monolayer Caco-2; settings: cited from earlier work
[5] = test system: CYP3A4; settings: cited from earlier work
[6] = test system: mice; settings: cited from earlier work
[7] = test system: platelet adhesion and coagulation; settings: rats, daily doses of 2 mg/kg body weight; plumbagin as a component of Plumbago zeylanica; cited from earlier work
[8] = single oral dose 150 mg/kg body weight, 14 days observation

Q: Which results are given for `CC1=CC(=O)c2c(O)cccc2C1=O` [plumbagin, 5-hydroxy-2-methyl-1,4-naphthoquinone]?
A: LD50 at 14 days ([1]; read-out: 50 % lethal dose (LD50), acute toxicity): 250 mg/kg; MTD at 14 days ([1]; read-out: maximum tolerated dose, acute toxicity): 150 mg/kg; gender-specific toxicity ([2]; all dose levels): No gender-specific toxicity was observed; histopathological examination (liver, kidney, heart, spleen, lung) ([2]; all dose levels (150, 250, 500 mg/kg)): no significant change in size and morphology; signs of toxicity, water and food consumption, body weight [2, 8]: no visible sign of toxicity; survival [2, 8]: All rats survived; animals died ([2]; single oral dose 250 mg/kg body weight): 3/6; animals died ([2]; single oral dose 500 mg/kg body weight): 6/6; signs of toxicity ([2]; single oral dose 250 and 500 mg/kg body weight): toxic signs and symptoms including anxiety, salivation, exhibited chewing, and agitation; modulation of CYP1A2 mRNA expression [3]: not found to induce or inhibit; modulation of CYP1A2 mRNA expression ([3]; listed as Plumbagin): did not significantly modulate; influence of efflux protein on permeability ([4]; Caco-2): no influence of efflux protein; permeability ([4]; Caco-2): moderate; transport mechanism [4]: passive transport; IC50 [5]: 2.37 µM; maximal tolerated dose, subacute toxicity testing ([6]; mice, for 14 days, ref our previous study): 25 mg/kg body weight; types of toxicity reported ([6]; mice): diarrhea, skin rashes, leukocytosis, increased serum phosphatase levels; maximal tolerated dose, acute toxicity testing ([6]; mice, ref our previous study): 100 mg/kg body weight; hepatotoxicity ([6]; mouse, in vivo): marked increased plasma ALT and AST levels; platelet adhesion and coagulation [7]: significantly decreased
